Test system: Influenza type B (cell culture adapted strain B/Lee/40, ATCC VR-1535)
Assay: Influenza antiviral assay: inhibition of virus-induced cytopathic effects (CPE) in MDCK cells, XTT dye reduction
Type: cell-based
Conditions: strain B/Lee/40, MDCK cells, CPE inhibition at 4 days

O=C1c2c(O)c(=O)ccn2N(C23c4ccccc4CC2Cc2c3ccc(F)c2F)CN1CC1CCCC1 (stereo not drawn) [Compound A100]
EC50 (Influenza B virus, MDCK, 96 h): 250 to 375 nM

COCCN1CN(C23c4ccccc4CC2Cc2c(Cl)cccc23)n2ccc(=O)c(O)c2C1=O (stereo not drawn) [Compound A101]
EC50 (Influenza B virus, MDCK, 96 h): < 125 nM

O=C1c2c(O)c(=O)ccn2N(C23c4ccccc4CC2Cc2c(Cl)cccc23)CN1CCCF (stereo not drawn) [Compound A102]
EC50 (Influenza B virus, MDCK, 96 h): < 125 nM

O=C1c2c(O)c(=O)ccn2N(C23c4ccccc4CC2Cc2c(Cl)cccc23)CN1C1CCC1 (stereo not drawn) [Compound A103]
EC50 (Influenza B virus, MDCK, 96 h): 125 to 250 nM

O=C1c2c(O)c(=O)ccn2N(C23c4ccccc4CC2Cc2c(Cl)cccc23)CN1CC1CCCC1 (stereo not drawn) [Compound A104]
EC50 (Influenza B virus, MDCK, 96 h): 125 to 250 nM

O=C1c2c(O)c(=O)ccn2N(C23c4ccccc4CC2Cc2c(Cl)cccc23)CN1CC(F)F (stereo not drawn) [Compound A105]
EC50 (Influenza B virus, MDCK, 96 h): < 125 nM

CN1C(=O)c2c(O)c(=O)ccn2N(C23C(=Cc4c(F)cccc42)Cc2c(F)cccc23)C1CN (stereo not drawn) [Compound A106, 2-(aminomethyl)-1-(1,8-difluoroindeno[1,2-a]inden-4b(9H)-yl)-5-hydroxy-3-methyl-2,3-dihydro-1H-pyrido[2,1-f][1,2,4]triazine-4,6-dione]
EC50 (Influenza B virus, MDCK, 96 h): < 125 nM

CN1C(=O)c2c(O)c(=O)ccn2N(C23c4cccc(F)c4CC2Cc2c(F)cccc23)C1CN (stereo not drawn) [Compound A107, 2-(aminomethyl)-1-(1,8-difluoro-9a,10-dihydroindeno[1,2-a]inden-4b(9H)-yl)-5-hydroxy-3-methyl-2,3-dihydro-1H-pyrido[2,1-f][1,2,4]triazine-4,6-dione]
EC50 (Influenza B virus, MDCK, 96 h): 125 to 250 nM

O=C1c2c(O)c(=O)ccn2N(C23c4ccccc4CC2Cc2c(Cl)cccc23)CN1CC1CC1 (stereo not drawn) [Compound A108]
EC50 (Influenza B virus, MDCK, 96 h): 250 to 375 nM

COCCN1CN(C23c4ccccc4CC2Cc2ccccc23)n2ccc(=O)c(O)c2C1=O (stereo not drawn) [Compound A110]
EC50 (Influenza B virus, MDCK, 96 h): < 125 nM

O=C1c2c(O)c(=O)ccn2N(C23c4ccccc4CC2Cc2c(Cl)cccc23)CN1CCF (stereo not drawn) [Compound A111]
EC50 (Influenza B virus, MDCK, 96 h): 125 to 250 nM

O=C1c2c(O)c(=O)ccn2N(C23c4ccccc4CC2Cc2c(Cl)cccc23)CN1CC1CCC1 (stereo not drawn) [Compound A112]
EC50 (Influenza B virus, MDCK, 96 h): 250 to 375 nM

COCCN1C(=O)c2c(O)c(=O)ccn2N(C23c4ccccc4CC2Cc2c3ccc(F)c2F)C1C (stereo not drawn) [Compound A113]
EC50 (Influenza B virus, MDCK, 96 h): 125 to 250 nM

O=C1c2c(O)c(=O)ccn2N(C23c4ccccc4CC2Cc2c(Cl)cccc23)CN1CCF (stereo not drawn) [Compound A114]
EC50: 125 to 250 nM

CC1N(CCF)C(=O)c2c(O)c(=O)ccn2N1C12c3ccccc3CC1Cc1c(Cl)cccc12 (stereo not drawn) [Compound A115]
EC50 (Influenza B virus, MDCK, 96 h): 250 to 375 nM

CCN1CN(C23c4ccccc4CC2(C)Cc2cc(F)ccc23)n2ccc(=O)c(O)c2C1=O (stereo not drawn) [Compound A116]
EC50 (Influenza B virus, MDCK, 96 h): < 125 nM

CC(C)CN1C(=O)c2c(O)c(=O)ccn2N(C23c4ccccc4CC2Cc2c(F)cccc23)C1C (stereo not drawn) [Compound A117]
EC50 (Influenza B virus, MDCK, 96 h): 250 to 375 nM

CC(C)CN1C(=O)c2c(O)c(=O)ccn2N(C23c4ccccc4CC2Cc2c(Cl)cccc23)C1C (stereo not drawn) [Compound A118]
EC50 (Influenza B virus, MDCK, 96 h): 250 to 375 nM

CC1N(CCF)C(=O)c2c(O)c(=O)ccn2N1C12c3ccccc3CC1Cc1c(F)cccc12 (stereo not drawn) [Compound A121]
EC50 (Influenza B virus, MDCK, 96 h): 125 to 250 nM

COCCN1C(=O)c2c(O)c(=O)ccn2N(C23c4ccccc4CC2Cc2c(F)cccc23)C1C (stereo not drawn) [Compound A124]
EC50 (Influenza B virus, MDCK, 96 h): 375 to 500 nM

COCCN1C(=O)c2c(O)c(=O)ccn2N(C23c4ccccc4CC2Cc2c(Cl)cccc23)C1C (stereo not drawn) [Compound A125]
EC50 (Influenza B virus, MDCK, 96 h): 125 to 250 nM

CN1CN(C23c4ccccc4CC2(C)Cc2cc(F)ccc23)n2ccc(=O)c(O)c2C1=O (stereo not drawn) [Compound A126]
EC50 (Influenza B virus, MDCK, 96 h): < 125 nM

CC(C)CN1C(=O)c2c(O)c(=O)ccn2N(C23c4ccccc4CC2Cc2c3ccc(F)c2F)C1C (stereo not drawn) [Compound A127]
EC50 (Influenza B virus, MDCK, 96 h): 250 to 375 nM

CC1N(CC2CC2)C(=O)c2c(O)c(=O)ccn2N1C12c3ccccc3CC1Cc1c2ccc(F)c1F (stereo not drawn) [Compound A128]
EC50 (Influenza B virus, MDCK, 96 h): 125 to 250 nM

CC1N(CC2CC2)C(=O)c2c(O)c(=O)ccn2N1C12c3ccccc3CC1Cc1c(F)cccc12 (stereo not drawn) [Compound A129]
EC50 (Influenza B virus, MDCK, 96 h): 125 to 250 nM

O=C1c2c(O)c(=O)ccn2N(C23c4cccc(F)c4CC2Cc2c(F)cccc23)CN1CC1CCCCO1 (stereo not drawn) [Compound A130]
EC50 (Influenza B virus, MDCK, 96 h): 125 to 250 nM

O=C1c2c(O)c(=O)ccn2N(C23c4ccccc4CC2Cc2c3ccc(F)c2F)CN1CC1CCCCO1 (stereo not drawn) [Compound A131]
EC50 (Influenza B virus, MDCK, 96 h): 125 to 250 nM

CCCN1C(=O)c2c(O)c(=O)ccn2N(C23c4ccccc4CC2Cc2c(Cl)cccc23)C1C (stereo not drawn) [Compound A132]
EC50 (Influenza B virus, MDCK, 96 h): 250 to 375 nM

O=C1c2c(O)c(=O)ccn2N(C23c4ccccc4CC2Cc2c(F)cccc23)CN1CC1CCCCO1 (stereo not drawn) [Compound A133]
EC50 (Influenza B virus, MDCK, 96 h): 125 to 250 nM

CC1N(CC(F)F)C(=O)c2c(O)c(=O)ccn2N1C12c3ccccc3CC1Cc1c2ccc(F)c1F (stereo not drawn) [Compound A136]
EC50 (Influenza B virus, MDCK, 96 h): 250 to 375 nM

CCN1C(=O)c2c(O)c(=O)ccn2N(C23c4ccccc4CC2Cc2c(F)cccc23)C1C (stereo not drawn) [Compound A138]
EC50 (Influenza B virus, MDCK, 96 h): < 125 nM

CC1N(CC(F)F)C(=O)c2c(O)c(=O)ccn2N1C12c3ccccc3CC1Cc1c(F)cccc12 (stereo not drawn) [Compound A139]
EC50 (Influenza B virus, MDCK, 96 h): 125 to 250 nM

CC1N(CC2CC2)C(=O)c2c(O)c(=O)ccn2N1C12c3ccccc3CC1Cc1c(Cl)cccc12 (stereo not drawn) [Compound A140]
EC50 (Influenza B virus, MDCK, 96 h): 250 to 375 nM

CC1N(C2CCC2)C(=O)c2c(O)c(=O)ccn2N1C12c3ccccc3CC1Cc1c(F)cccc12 (stereo not drawn) [Compound A141]
EC50 (Influenza B virus, MDCK, 96 h): 250 to 375 nM

Cc1cc(CN2CN(C34c5ccccc5CC3Cc3ccccc34)n3ccc(=O)c(O)c3C2=O)no1 (stereo not drawn) [Compound A144]
EC50 (Influenza B virus, MDCK, 96 h): < 125 nM

CN1CN(C23c4ccccc4CC2Cc2cccc(F)c23)n2ccc(=O)c(O)c2C1=O (stereo not drawn) [Compound A145]
EC50 (Influenza B virus, MDCK, 96 h): < 125 nM

CN1CN(C23c4ccccc4CC2Cc2c3ccc(Cl)c2Cl)n2ccc(=O)c(O)c2C1=O (stereo not drawn) [Compound A146]
EC50 (Influenza B virus, MDCK, 96 h): 125 to 250 nM

CCN1CN(C23c4ccccc4CC2(C)Cc2ccccc23)n2ccc(=O)c(O)c2C1=O (stereo not drawn) [Compound A147]
EC50 (Influenza B virus, MDCK, 96 h): 125 to 250 nM

CCCN1CN(C23c4ccccc4CC2Cc2c3ccc(F)c2F)n2ccc(=O)c(O)c2C1=O (stereo not drawn) [Compound A148]
EC50 (Influenza B virus, MDCK, 96 h): 125 to 250 nM

CC(C)CN1CN(C23c4ccccc4CC2Cc2c3ccc(F)c2F)n2ccc(=O)c(O)c2C1=O (stereo not drawn) [Compound A149]
EC50 (Influenza B virus, MDCK, 96 h): < 125 nM

CN1CN(C23c4ccccc4CC2(C)Cc2ccccc23)n2ccc(=O)c(O)c2C1=O (stereo not drawn) [Compound A150]
EC50 (Influenza B virus, MDCK, 96 h): < 125 nM

CCN1CN(C23c4cccc(F)c4CC2Cc2c(Cl)cccc23)n2ccc(=O)c(O)c2C1=O (stereo not drawn) [Compound A151]
EC50 (Influenza B virus, MDCK, 96 h): 125 to 250 nM

CCN1CN(C23c4ccccc4CC2(OC)Cc2ccccc23)n2ccc(=O)c(O)c2C1=O (stereo not drawn) [Compound A152]
EC50 (Influenza B virus, MDCK, 96 h): 125 to 250 nM

CCCN1CN(C23c4cccc(F)c4CC2Cc2c(F)cccc23)n2ccc(=O)c(O)c2C1=O (stereo not drawn) [Compound A153]
EC50 (Influenza B virus, MDCK, 96 h): 125 to 250 nM

CC(C)CN1CN(C23c4cccc(F)c4CC2Cc2c(F)cccc23)n2ccc(=O)c(O)c2C1=O (stereo not drawn) [Compound A156]
EC50 (Influenza B virus, MDCK, 96 h): 125 to 250 nM

CCN1CN(C23c4ccccc4CC2(CC)Cc2ccccc23)n2ccc(=O)c(O)c2C1=O (stereo not drawn) [Compound A157]
EC50 (Influenza B virus, MDCK, 96 h): 125 to 250 nM

CC1N(C)C(=O)c2c(O)c(=O)ccn2N1C12c3ccccc3CC1Cc1ccccc12 (stereo not drawn) [Compound A158]
EC50 (Influenza B virus, MDCK, 96 h): 125 to 250 nM

CN1CN(C23c4ccccc4CC2Cc2c3ccc(Cl)c2F)n2ccc(=O)c(O)c2C1=O (stereo not drawn) [Compound A160]
EC50 (Influenza B virus, MDCK, 96 h): < 125 nM

CCN1CN(C23c4ccccc4CC2Cc2c3ccc(Cl)c2Cl)n2ccc(=O)c(O)c2C1=O (stereo not drawn) [Compound A161]
EC50 (Influenza B virus, MDCK, 96 h): < 125 nM

CCC12Cc3ccccc3C1(N1CN(C)C(=O)c3c(O)c(=O)ccn31)c1ccccc1C2 (stereo not drawn) [Compound A162]
EC50 (Influenza B virus, MDCK, 96 h): < 125 nM

CCN1CN(C23c4ccccc4CC2(C)Cc2c3ccc(F)c2F)n2ccc(=O)c(O)c2C1=O (stereo not drawn) [Compound A164]
EC50 (Influenza B virus, MDCK, 96 h): < 125 nM

CN1CN(C23c4ccccc4CC2(C)Cc2c3ccc(F)c2F)n2ccc(=O)c(O)c2C1=O (stereo not drawn) [Compound A165]
EC50 (Influenza B virus, MDCK, 96 h): < 125 nM

CCC1N(C)C(=O)c2c(O)c(=O)ccn2N1C12c3ccccc3CC1Cc1ccccc12 (stereo not drawn) [Compound A166]
EC50 (Influenza B virus, MDCK, 96 h): < 125 nM

CC(C)N1CN(C23c4ccccc4CC2(C)Cc2c3ccc(F)c2F)n2ccc(=O)c(O)c2C1=O (stereo not drawn) [Compound A167]
EC50 (Influenza B virus, MDCK, 96 h): < 125 nM

Reference: patent US12037333B2, “Pyridopyrazine and pyridotriazine inhibitors of influenza virus replication” (priority 2018, dated 2024)
